For two compounds, Ki and inhibition results are on record in paper PMC6225212, “Synthesis and Pharmacological Evaluation of Novel Silodosin-Based Arylsulfonamide Derivatives as α1A/α1D-Adrenergic Receptor Antagonist with Potential Uroselective Profile” (Molecules : A Journal of Synthetic Chemistry and Natural …, 2018).

One data set has as its target α2-ARs. The experiment in a line: Radioligand binding, displacement of [3H]-Clonidine from α2-ARs on rat cerebral cortex. As to conditions: ± SEM, two independent experiments. As for the experimental part: The pharmacological profile of the new compounds was assessed in radioligand-binding assays as the ability to displace [^3H]-Prazosin or [^3H]-Clonidine from α1- and α2-ARs, respectively, on rat cerebral cortex. The inhibition constants (Ki) were calculated from the Cheng-Prusoff equation [24].
The affinity of the obtained compounds was evaluated by radioligand-binding assays (the ability to displace [^3H]-Prazosin and [^3H]-Clonidine from α1- and α2-ARs, respectively) on rat cerebral cortex. The brains are homogenized in 20 volumes of an ice-cold 50 mM Tris-HCl buffer (pH 7.6) and is centrifuged (MPW Med. Instruments, Warsaw, Poland) at 20,000 g for 20 min (0–4 °C). The cell pellet is resuspended in the Tris-HCl buffer and centrifuged again. Radioligand-binding assays are performed in plates (MultiScreen/Millipore, Burlington, MA, USA). The final incubation mixture (final volume 300 µL) consisted of 240 µL of the membrane suspension, 30 µL of [^3H]-Prazosin (0.2 nM) or [^3H]-Clonidine (2 nM) solution, and 30 µL of the buffer containing seven to eight concentrations (10^−11 to 10^−4 M) of the tested compounds. For measuring the unspecific binding, phentolamine, 10 µM (in the case of [^3H]-Prazosin) and clonidine, and 10 µM (in the case of [^3H]-Clonidine), were applied. The incubation was terminated by rapid filtration over glass fiber filters (Whatman GF/C, Sigma-Aldrich) using a vacuum manifold (Millipore). The filters were then washed twice with the assay buffer and placed in scintillation vials with a liquid-scintillation cocktail. Radioactivity was measured in a WALLAC 1409 DSA liquid-scintillation counter (BioSurplus, San Diego, CA, USA). All the assays were made in duplicate.
On the technique in general: Displacement assays read how much labelled ligand stays bound in the presence of the test substance.

For the next data set, the target named is T1, human 5-HT1A (Homo sapiens, UniProt P08908).
T1 construct: expressed in transfected cells; host or cells: CHO-K1
T1 sequence (P08908 1-422): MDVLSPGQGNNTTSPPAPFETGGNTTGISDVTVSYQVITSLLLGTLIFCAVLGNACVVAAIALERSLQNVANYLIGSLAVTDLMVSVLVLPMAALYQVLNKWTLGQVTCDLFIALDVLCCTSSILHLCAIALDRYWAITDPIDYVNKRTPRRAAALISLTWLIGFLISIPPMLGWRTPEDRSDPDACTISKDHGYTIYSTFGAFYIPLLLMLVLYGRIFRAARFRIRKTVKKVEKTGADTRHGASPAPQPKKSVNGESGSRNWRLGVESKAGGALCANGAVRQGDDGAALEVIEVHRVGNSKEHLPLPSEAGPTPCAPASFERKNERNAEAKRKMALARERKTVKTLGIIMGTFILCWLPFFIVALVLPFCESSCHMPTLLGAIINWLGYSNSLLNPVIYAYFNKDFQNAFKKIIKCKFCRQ
The experiment in a line: Radioligand binding [3H]-8-OH-DPAT, membranes from CHO-K1 cells. As to conditions: ± SEM, two independent experiments. As for the experimental part: (§1) Experiments were performed using membranes from CHO-K1 cells stably transfected with the human 5-HT1A and 5-HT7Rs according to the methods previously described.
(§2) Binding experiments were conducted in 96-well microplates in a total volume of 250 μL of appropriate buffers. The composition of the assay buffers was as follows: 50 mM Tris-HCl, 0.1 mM EDTA, 10 mM MgCl2. The reaction mix included 50 μL solution of test compound, 50 μL of radioligand, and 150 μL of diluted membranes. All assays were incubated for 1 h (5-HT1ARs) or 2 h (5-HT7Rs) at 37 °C. Radioactivity was counted in MicroBeta2 scintillation counter (PerkinElmer, Waltham, MA, USA). Nonspecific binding is defined with 10 µM of 5-HT and 10 µM of methiothepine in 5-HT1AR and 5-HT7R binding experiments, respectively. Each compound was tested in screening assay at two final concentrations of 10 µM and 1 µM.

The target of a further data set is T2, human 5-HT7Rs (Homo sapiens, UniProt P34969).
T2 construct: expressed in transfected cells; host or cells: CHO-K1
T2 sequence (P34969 whole entry): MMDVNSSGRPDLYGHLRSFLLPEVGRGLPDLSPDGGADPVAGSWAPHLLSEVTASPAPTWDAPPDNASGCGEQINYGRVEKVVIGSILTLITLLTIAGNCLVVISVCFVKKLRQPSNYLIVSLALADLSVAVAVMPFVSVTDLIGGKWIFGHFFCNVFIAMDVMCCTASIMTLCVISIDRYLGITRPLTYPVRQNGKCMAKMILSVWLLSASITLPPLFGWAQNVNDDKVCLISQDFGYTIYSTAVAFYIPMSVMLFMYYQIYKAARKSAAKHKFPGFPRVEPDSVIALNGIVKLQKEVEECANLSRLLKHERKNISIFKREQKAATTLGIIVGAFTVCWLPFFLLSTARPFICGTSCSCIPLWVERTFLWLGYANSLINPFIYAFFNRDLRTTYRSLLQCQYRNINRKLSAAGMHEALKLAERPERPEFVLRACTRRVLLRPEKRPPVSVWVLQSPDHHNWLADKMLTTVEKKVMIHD
The experiment in a line: Radioligand binding screening [3H]-LSD, membranes from CHO-K1 cells. As to conditions: for inhibition at 1 µM: 10^−6 M, read-out: 5-HT7 %inh @ 10^−6 M; for inhibition at 0.1 µM: 10^−7 M, read-out: 5-HT7 %inh @ 10^−7 M. As for the experimental part:
as §1
as §2, with “Each compound was tested in screening assay at two final concentrations of 10 µM and 1 µM.” left out

In a further data set the target is T3, muscarinic M1R (Homo sapiens, UniProt P11229).
T3 construct: Eurofins (Celle-Lévescault, France)
T3 sequence (P11229 1-460): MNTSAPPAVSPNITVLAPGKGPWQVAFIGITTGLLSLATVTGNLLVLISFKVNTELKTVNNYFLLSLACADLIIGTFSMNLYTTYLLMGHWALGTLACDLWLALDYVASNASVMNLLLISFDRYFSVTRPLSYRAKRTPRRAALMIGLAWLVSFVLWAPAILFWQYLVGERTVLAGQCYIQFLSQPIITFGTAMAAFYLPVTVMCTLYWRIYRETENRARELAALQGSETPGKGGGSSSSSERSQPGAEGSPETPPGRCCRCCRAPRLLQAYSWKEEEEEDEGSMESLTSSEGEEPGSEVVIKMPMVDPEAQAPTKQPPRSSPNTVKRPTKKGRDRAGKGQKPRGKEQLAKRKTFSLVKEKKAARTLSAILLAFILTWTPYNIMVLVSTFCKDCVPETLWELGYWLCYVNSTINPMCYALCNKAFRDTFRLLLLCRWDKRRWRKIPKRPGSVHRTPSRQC
The experiment in a line: Off-target panel at Eurofins Cerep, M1. The format is binding. As for the experimental part:
(§3) Finally, the percentage of inhibition for selected compounds 9 and 10 for off-target histaminic H1R, muscarinic M1R, adrenergic β1-AR and potassium ion channel hERG were assessed at Eurofins (Celle-Lévescault, France) according to the procedure online at www.eurofins.com.

The next data set deals with T4, hERG potassium channel (Homo sapiens, UniProt Q12809).
T4 construct: Eurofins (Celle-Lévescault, France)
T4 sequence (Q12809 whole entry): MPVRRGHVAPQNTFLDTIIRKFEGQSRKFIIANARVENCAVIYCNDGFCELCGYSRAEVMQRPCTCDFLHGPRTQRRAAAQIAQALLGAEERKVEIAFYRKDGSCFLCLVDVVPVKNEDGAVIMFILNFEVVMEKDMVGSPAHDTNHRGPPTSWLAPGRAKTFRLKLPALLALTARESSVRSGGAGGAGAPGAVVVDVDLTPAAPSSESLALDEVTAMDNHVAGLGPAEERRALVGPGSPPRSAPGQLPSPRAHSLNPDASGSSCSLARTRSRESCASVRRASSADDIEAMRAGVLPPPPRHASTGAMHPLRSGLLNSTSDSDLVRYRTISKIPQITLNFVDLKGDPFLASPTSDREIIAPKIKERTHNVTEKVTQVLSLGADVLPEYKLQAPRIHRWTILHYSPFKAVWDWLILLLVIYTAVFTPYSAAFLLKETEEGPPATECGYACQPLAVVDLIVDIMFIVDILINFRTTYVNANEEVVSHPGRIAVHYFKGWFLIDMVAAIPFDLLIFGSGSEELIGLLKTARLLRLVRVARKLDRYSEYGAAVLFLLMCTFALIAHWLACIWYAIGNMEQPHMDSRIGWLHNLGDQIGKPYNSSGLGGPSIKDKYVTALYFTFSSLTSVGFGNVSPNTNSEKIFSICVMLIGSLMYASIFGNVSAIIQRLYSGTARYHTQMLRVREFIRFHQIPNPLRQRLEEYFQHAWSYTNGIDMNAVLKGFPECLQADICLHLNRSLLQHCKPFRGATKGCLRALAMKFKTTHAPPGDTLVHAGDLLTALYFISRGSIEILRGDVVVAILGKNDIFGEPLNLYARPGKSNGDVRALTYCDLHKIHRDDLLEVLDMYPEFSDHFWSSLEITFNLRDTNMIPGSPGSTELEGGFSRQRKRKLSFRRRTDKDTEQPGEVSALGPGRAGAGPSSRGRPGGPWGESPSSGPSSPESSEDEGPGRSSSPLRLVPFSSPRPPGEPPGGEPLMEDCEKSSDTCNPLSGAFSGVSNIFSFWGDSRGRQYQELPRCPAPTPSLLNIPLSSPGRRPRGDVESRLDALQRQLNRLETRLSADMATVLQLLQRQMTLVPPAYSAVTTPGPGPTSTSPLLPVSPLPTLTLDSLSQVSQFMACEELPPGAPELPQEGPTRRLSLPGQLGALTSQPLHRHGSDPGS
The experiment in a line: Off-target panel at Eurofins Cerep, hERG. The format is binding. As to conditions: read-out: inhibition at hERG channels. On the procedure:
as §3
(hERG is a cardiac potassium channel; its block is linked to QT prolongation.)

By Ki is commonly meant the equilibrium dissociation constant of an inhibitor or competing ligand from its target.

As to `O=S(=O)(NCC1CCN(CCOc2ccccc2OCC(F)(F)F)CC1)c1cccc(Cl)c1F` [Compound 9, 3-Chloro-2-fluoro-N-[(1-{2-[(2,2,2-trifluoroethoxy)phenoxy]ethyl}piperidin-4-yl)methyl]benzenesulfonamide], the Ki on α2-ARs stood at 858 ± 69 nM; at human 5-HT1A, 70 ± 3.5 nM. In addition, the inhibition at 1 µM was 93% on human 5-HT7Rs, less than 50% on muscarinic M1R and less than 50% at hERG potassium channel. At human 5-HT7Rs, the inhibition at 0.1 µM was determined as 57%.

With `O=S(=O)(NCC1CCN(CCOc2ccccc2OCC(F)(F)F)CC1)c1cc(Cl)ccc1F` [Compound 10, 5-Chloro-2-fluoro-N-[(1-{2-[(2,2,2-trifluoroethoxy)phenoxy]ethyl}piperidin-4-yl)methyl]benzenesulfonamide], the Ki at α2-ARs was determined as 579 ± 20 nM; on human 5-HT1A it was 46 ± 0.6 nM. For the same compound, the inhibition at 1 µM at human 5-HT7Rs is 94%; against muscarinic M1R, less than 50%; on hERG potassium channel, less than 50%. Also, on human 5-HT7Rs, the inhibition at 0.1 µM was determined as 61%.
